Source: patent publication US20110274651A1, “Noscapine and Noscapine Analogs and Their Use in treating Infectious Diseases by Tubulin Binding Inhibition” (priority 2008, published 2011)
Read-outs that look alike come from different tables or passages of the source.

Experiments:
vaccinia virus = test: Plaque assay of vaccinia virus in BSC-40 cells; assay type: cell-based
tubulin [1] = settings: literature values, refs [18], [12], [43]; read-out: dissociation constant (Kd) binding to tubulin; cited from earlier work
tubulin [2] = biological target: T1, tubulin; test: Tubulin binding assay (fluorescence titration, quenching of intrinsic tubulin fluorescence); design: species or system Mammalian; settings: double reciprocal plots; 0-100 μM ligand, 2 μM tubulin, 45 min at 37° C.; read-out: dissociation constant (Kd) binding to tubulin
T1 construct: other: double reciprocal plots; 0-100 μM ligand, 2 μM tubulin, 45 min at

Structure (SMILES)	Kd (tubulin [1]) [µM]	Kd (tubulin [2]) [µM]	other results
COc1ccc2c(c1OC)C(=O)O[C@@H]2[C@H]1c2c(c(Br)c3c(c2OC)OCO3)CCN1C [9-Br-nos, (S)-6,7-dimethoxy-3-((R)-4-methoxy-6-methyl-9-bromo-5,6,7,8-tetrahydro-[1,3]dioxolo[4,5-g]isoquinolin-5-yl)isobenzofuran-1(3H)-one]	54 ± 9.1		spread of vaccinia virus in BSC-40 cells (vaccinia virus): inhibited; prevention of infection (vaccinia virus; 25 uM in 0.1% DMSO): does not prevent infection; plaque appearance (vaccinia virus; 25 uM in 0.1% DMSO, FIG. 1): only small “pinpoint” plaques are evident
COc1ccc2c(c1OC)C(=O)O[C@@H]2[C@H]1c2c(c(Cl)c3c(c2OC)OCO3)CCN1C [9-Cl-nos]	40 ± 8		
COc1ccc2c(c1OC)C(=O)O[C@@H]2[C@H]1c2c(c(F)c3c(c2OC)OCO3)CCN1C [9-F-nos, (S)-6,7-dimethoxy-3-((R)-4-methoxy-6-methyl-9-fluoro-5,6,7,8-tetrahydro-[1,3]dioxolo[4,5-g]isoquinolin-5-yl)isobenzofuran-1(3H)-one]		81 ± 8	
COc1ccc2c(c1OC)C(=O)O[C@@H]2[C@H]1c2c(c(I)c3c(c2OC)OCO3)CCN1C [9-I-nos, (S)-6,7-dimethoxy-3-((R)-4-methoxy-6-methyl-9-iodo-5,6,7,8-tetrahydro-[1,3]dioxolo[4,5-g]isoquinolin-5-yl)isobenzofuran-1(3H)-one]		22 ± 4	
COc1ccc2c(c1OC)C(=O)O[C@@H]2[C@H]1c2c(cc3c(c2OC)OCO3)CCN1C [noscapine, (S)-6,7-dimethoxy-3-((R)-4-methoxy-6-methyl-5,6,7,8-tetrahydro-[1,3]dioxolo[4,5-g]isoquinolin-5-yl)isobenzofuran-1(3H)-one]	144 ± 2.8		
